# Where two headings read alike, the source gives them in different places.
# Assays:
# [1] = test system: inositol trisphosphate (InsP3) levels in Dictyostelium; conditions: Williams et al., 1999; cited from earlier work
# [2] = cited from earlier work
# [3] = test system: phosphoinositide (PIP and PIP2) turnover in Dictyostelium AX2 cells; experiment: Dictyostelium phospholipid labelling (PIP and PIP2 turnover); type: cell-based, Dictyostelium discoideum; conditions: for activity at 500 µM: 0.1 h
# Experimental: Phospholipid labelling was quantified using a Typhoon phosphor-imager. Even loading was determined using total lipid stain with copper sulphate.
# [4] = test system: PTZ-induced epileptiform activity in entorhinal cortex-hippocampal slices; experiment: In vitro PTZ acute seizure model, entorhinal cortex-hippocampus slices; type: cell-based, rat; conditions: PTZ 2 mM, [K+] 6 mM; compounds equimolar 1 mM; 30 to 40 minutes after application
# Experimental: The rats (p21) were decapitated after killing by intraperitoneal injection with an overdose of pentobarbitone (500 mg/kg). The brain was removed and placed in ice-cold sucrose solution in mM: NaCl 87, KCl 2.5, MgCl2 7, CaCl2 0.5, NaH2PO4 1.25, sucrose 75, glucose 25, equilibrated with 95% 02/5% CO2 (pH 7.4). Horizontal combined entorhinal cortex-hippocampus slices (350 μm) were prepared with a Leica vibratome (Leica V T1200S) and were then stored in an interface chamber that contained artificial cerebrospinal fluid solution (aCSF) containing in mM: NaCl 119, KCl 2.5, MgSO4 4, CaCl2 4, NaHCO326.2, NaH2PO4 1, glucose 11, and gassed with 95% O2/5% CO2. They were stored for over one hour before being transferred to a submersion recording chamber continually perfused with carbogenated aCSF for recording. Field potential recordings were made by placing glass microelectrodes (˜1-2 MΩ) filled with aCSF solution in stratum radiatum of CA1. Bipolar stimulating electrodes were positioned in the Schaffer collateral/commissural fibre pathway in stratum radiatum to confirm slice viability. In the PTZ acute seizure model, PTZ (2 mM) was added to the perfusate and [K+] was increased to 6 mM in order to induce epileptiform activity (Armand et al., 1998). In the low Mg^2+ acute seizure model, Mg^2+ free aCSF was applied to generate rhythmic short recurrent discharges. Novel anticonvulsants were applied once the frequency and amplitude of the epileptiform discharges were stable over a period of 10 min. Anticonvulsant effects were evaluated by measuring the variation of frequency of the discharges every minute. The data acquired from the 30 to 40 minutes after application novel anticonvulsants were compared by ANOVA followed by post-hoc testing using Tukey test, using SPSS statistical analysis.
# [5] = test system: uptake of 3H arachidonic acid / palmitic acid into Dictyostelium cells; experiment: Fatty acid uptake (3H radiolabel incorporation into cells); type: cell-based, Dictyostelium discoideum; conditions: for EC50: Dictyostelium
# [6] = test system: inositol levels in Dictyostelium cells; experiment: Inositol levels in treated Dictyostelium cells; type: cell-based, Dictyostelium discoideum; conditions: time period causing phosphoinositide attenuation (9 min)
# Experimental: Following a 6 min incubation, labelling solution was removed and cells were lysed in acidified methanol and phospholipids were separated as previously detailed (Williams et al., 1999). Phospholipid labelling was quantified using a Typhoon phosphor-imager. Even loading was determined using total lipid stain with copper sulphate. Inositol levels were measured from five hour developed cells (similar to phospholipid labelling), following lyophilisation, as previously described (Maslanski & Busa, 1990).
# [7] = Table 2; cited from earlier work
# [8] = 0.5 mM VPA, 6 min treatment (printed 6 mM)
# [9] = 5×PI3K knockout mutant, 0.5 mM VPA, 9 min
# [10] = PIPKinA knockout mutant, 0.5 mM VPA, 9 min
# [11] = cells lacking phospholipase C gene, 0.5 mM VPA, 9 min
# [12] = prolyl oligopeptidase (PO) ablated cells, 0.5 mM VPA, 9 min
# [13] = rPKA knockout mutant, 0.5 mM VPA, 9 min
smiles,measurement,setting,value
"CCCC(CCC)C(=O)O [VPA, 2-propylpentanoic acid, reference compound]",treatment time required for depletion of inositol trisphosphate,[1],6 h
same,concentration in plasma in therapeutic use,"[2]; DSM IV, 2000",400 to 700 µM
same,concentration in plasma of patients receiving treatment,"[2]; Silva et al., 2008",280 to 700 µM
same,reduction in radio-labelled PIP2 turnover,[3]; [8],49%
same,reduction in radio-labelled PIP turnover,[3]; [8],49%
same,reduction of PIP2 turnover,"[3]; 0.5 mM VPA, 9 min treatment",79%
same,reduction of PIP turnover,"[3]; 0.5 mM VPA, 9 min treatment",68%
same,reduction in PIP2 turnover,"[3]; 0.5 mM VPA, 60 min treatment",94%
same,reduction in PIP turnover,"[3]; 0.5 mM VPA, 60 min treatment",94%
same,reduction of PIP2 production compared to untreated cells,[3]; [9],70%
same,reduction of PIP production compared to untreated cells,[3]; [9],48%
same,activity at 500 µM,"[3]; Dictyostelium, read-out: PIP Level (% control), Table 1, 0.5 mM compound, 3 min pre-treatment + 6 min labelling, wild type Dictyostelium",32%
same,activity at 500 µM,"[3]; Dictyostelium, read-out: PIP level % control, Table 2, VPA and straight chain acids in Dictyostelium",32%
same,EC50,"[3]; Dictyostelium, 0.15 h, read-out: EC50 of inhibition of phosphoinositide turnover",154 µM
same,inhibition at 250 µM,"[3]; Dictyostelium, 0.15 h, read-out: inhibition of PIP2 turnover",42%
same,inhibition at 250 µM,"[3]; Dictyostelium, 0.15 h, read-out: inhibition of PIP turnover",25%
same,reduction in PIP2 synthesis compared to untreated cells,[3]; [10],68%
same,reduction in PIP synthesis compared to untreated cells,[3]; [10],54%
same,reduction in PIP2 signalling,[3]; [11],75%
same,reduction in PIP signalling,[3]; [11],73%
same,reduction in PIP2 signalling,[3]; [12],68%
same,reduction in PIP signalling,[3]; [12],66%
same,additional reduction of PIP2 production compared to untreated cells,[3]; [13],33%
same,additional reduction of PIP production compared to untreated cells,[3]; [13],72%
same,frequency of epileptiform discharges (seizure discharge frequency),[4],75.1±1.7%
same,EC50,"[5]; 3H arachidonic acid, read-out: EC50 of increase in uptake of AA",47 µM
same,EC50,"[5]; 3H palmitic acid, read-out: EC50 of increase in uptake of palmitic acid",160 µM
same,fatty acid uptake in cell lines lacking fcsA,"[5]; fcsA -/- cells, 0.5 mM VPA",increase
same,reduction in inositol levels,[6],no significant reduction
same,pKa,[7],4.6

# Source: patent publication US11491127B2, “Therapeutic use of compounds” (UCL BUSINESS LTD, priority 2010, dated 2022)
